One series concerns cell membrane. Description: Cell membrane permeability and retention of peptides in cells (description). It is filed as cell-based. Conditions: for cell membrane permeability: need of a cell delivery system.
Series [1] has as its target T1, interaction of Ku70 and Bax (Homo sapiens, UniProt Q07812).
T1 construct: lysates prepared from human cultured cells (HeLa cells and human kidney epithelial 293 cells); endogenous in cells; host or cells: HeLa cells; human kidney epithelial 293 cells
Briefly: Inhibition of the interaction of Ku70 and Bax in cell lysates. It is filed as binding. Conditions: negative controls; lysates from human cultured cells. As for the experimental part: The Bax-binding domain in Ku70 comprises 6 amino acids (VPMLKE, SEQ ID NO: 1). This peptide (Ku70 Peptide) inhibits the interaction of Ku70 and Bax at the concentration of 20-80 μM in lysates prepared from human cultured cells (HeLa cells and human kidney epithelial 293 cells).

In series [2] the test system is platelet number in mouse peripheral blood. Description: Platelet number in mouse peripheral blood after Etoposide. It is filed as in vivo, C57BL/6J mice. Conditions: Etoposide 150 mg/kg i.p., for 48 hrs. The protocol: Percentage of platelets in C57BL/6J mice compared to before treatment (100%). […] The statistical significance was determine by an unpaired student t test, *P<0.05, **P<0.01, ***, P<0.001.
Mouse blood (50-100 micro 1) was collected by heparin-coated capillary tube from tail, and the samples were incubated at room temperature for 1 hr before blood cell analysis using HEMA VET blood cell counter (Drew Scientific Inc. Oxford, Conn.). Each blood sample was measured twice, and the mean value of two measurements was used as one sample data (n=1).

The nature of series [3]: Preliminary toxicity study in mice. It is filed as in vivo. Conditions: 166.5 mg/kg i.p. and 16.5 mg/kg i.v.t. The protocol:
Importantly, we also obtained a preliminary result showing that BIP pre-treatment attenuated Etoposide-induced platelet decrease in mouse model. To develop the technology protecting megakaryocytes from chemotherapy, further extensive animal studies are needed. […] We examined doses of 166.5 mg/kg by i.p. and 16.5 mg/kg by i.v.t. […] The dose of 166.5 mg/kg is expected to achieve 300 μM of BIP in whole mouse body, if a mouse body is assumed to be filled with water. Probably, much less amount of BIP is sufficient to achieve effective doses (50-400 μM) (Sawada, M., P. Hayes, and S. Matsuyama, Cytoprotective membrane-permeable peptides designed from the Bax-binding domain of Ku70. Nat Cell Biol, 2003. 5(4): p. 352-7; Yoshida, T., et al., Bax-inhibiting peptide derived from mouse and rat Ku70. Biochem Biophys Res Commun, 2004. 321(4): p. 961-6; Yu, L. Y., et al., GDNF-deprived sympathetic neurons die via a novel nonmitochondrial pathway. J Cell Biol, 2003. 163(5): p. 987-97; Qin, Q., K. Patil, and S. C. Sharma, The role of Bax-inhibiting peptide in retinal ganglion cell apoptosis after optic nerve transection. Neurosci Lett, 2004. 372(1-2): p. 17-21) in blood or a specific tissue.

In series [4] the test system is primary cultured mouse megakaryocytes. Description: Platelet formation in vitro (Integrin αIIB positive platelet like particles, flow cytometry). It is filed as cell-based. Conditions: 48 h; VPTLK 200 μM; Z-VAD-fmk 200 and 400 μM; FIG. 5B. The protocol:
After the pre-incubation with the peptides, 1 mM EDTA and 50 ng/ml prostaglandin E1 (Sigma) dissolved in ethanol were added to the cell culture before the centrifugation (700 g) at room temperature (RT) for 10 min. The platelets were washed with 300 μl of tyrodes buffer (pH 7.4) containing 2.5 mg/ml BSA and 1 mg/ml glucose. Then 2 μl of anti CD16/anti CD32 (BD Phaminogen™) was added to the platelets. The platelets were incubated at RT for 10 min. The platelets were divided into 3 sets, and 2 μl of rat IgG1 κ phycoerythrin (PE) labeled isotype control (Pharmingen) was added to one sample, and 2 μl of PE labeled antibody of intregin αIIB PE (Santa Cruz) was added to the other two samples. The platelets were incubated at RT for 30 min. Finally, 5 μl of Flow-Count™ Fluorospheres (Beackman-Coulter™) was added to the sample as platelet size marker. The platelets were detected with a FACScan flow cytometer system (Becton Dickinson; BD LSRII) using cellquest software. Each point in the figures showing percent apoptosis represents the mean±SEM of three experiments.

“Also recorded” adds a separate entry of the source. Where a SMILES comes first, the peptide text is derived from it. Where no end group is shown, it is not given here. The star is where a group is joined. Cbz = O=C(OCc1ccccc1)*; CH2F = FC*

T1 sequence (Q07812 whole entry): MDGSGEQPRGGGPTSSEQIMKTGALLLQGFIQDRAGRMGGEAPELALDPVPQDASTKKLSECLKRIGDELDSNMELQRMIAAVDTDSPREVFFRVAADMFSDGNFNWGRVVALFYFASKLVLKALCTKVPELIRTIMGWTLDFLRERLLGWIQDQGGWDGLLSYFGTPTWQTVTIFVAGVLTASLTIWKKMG

For the compound VPMLK [VPMLK], the cell membrane permeability result in the series with cell membrane is recorded as “cell membrane permeable”.

“Ku70 Peptide NC: the immediate next six amino acid sequence of Ku70, negative control (LGKFTV; UniProt P12956 573-578, looked up, fragment)”: the “effect on the interaction of Ku70 and Bax” value in series [1] is “did not affect the interaction of Ku70 and Bax”.

For PMLKE [PMLKE], in the series on cell membrane, the cell membrane permeability result was “cell membrane permeable”.

Consider `CSCC[C@H](NC(=O)[C@@H]1CCCN1)C(=O)N[C@@H](CC(C)C)C(=O)N[C@@H](CCCCN)C(=O)O` [PMLK] (H-PMLK-OH; N-terminus and C-terminus assumed), for which, in the series on cell membrane, the “retention in the cell” value is given as “not retained in the cell” and the cell membrane permeability result is on record as “cell membrane permeable”.

Consider `COc1cc([C@@H]2c3cc4c(cc3[C@@H](O[C@@H]3O[C@@H]5CO[C@@H](C)O[C@H]5[C@H](O)[C@H]3O)[C@H]3COC(=O)[C@H]23)OCO4)cc(OC)c1O` [Etoposide], for which, in series [2], the “platelet count in the peripheral blood after Etoposide alone” value is listed as “slight decrease of platelet count”.

In the case of VPTLK [VPTLK], the “survival after the injection” value in series [3] is listed as “more than 3 months”. Moreover, the toxicity in mice entry in series [3] (preliminary study, listed as BIP) is listed as “did not show any toxicity; also recorded: did not show any sign of illness”.

Turning to VPALR [VPALR], the cell membrane permeability result with cell membrane is recorded as “cell membrane permeable”.

In the case of VPMLKE [VPMLKE], in the series on cell membrane, the cell membrane permeability result was “a cell delivery system, such as liposomes as in the case of VPMLKE”.

As for `COC(=O)CC(NC(=O)C(C)NC(=O)C(NC(=O)OCc1ccccc1)C(C)C)C(=O)CF` (stereo not drawn) [Z-VAD-fmk, Benzyloxycarbonyl-Val-Ala-Asp (OMe) fluoromethylketone] (Cbz-Val-Ala-Asp(OMe)-CH2F; configuration not given here), the “platelet like particles formation” value in series [4] is recorded as “slightly decreased platelet like particles formation”.
